Drawing on the supplement of paper PMC10307832, this text covers relative viability for one cell line.

Holding throughout (experiment): relative viability (nuclei count vs DMSO), 5 days (fraction); higher = more cells survive
Compound in assay [1]: C1CC2=C(C1)C=C(C=C2)OC3=NC(=C4C(=N3)N(C=N4)CC5=CC=C(C=C5)C6=CC=CC=C6)N[C@@H](CC7=CC=CC=C7)CO [QS11] + CC(=O)Nc1cccc(-n2c(=O)n(C3CC3)c(=O)c3c(Nc4ccc(I)cc4F)n(C)c(=O)c(C)c32)c1 [Trametinib] (partner 0.02 µM)
A digest of the protocol:
(§1)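 Lung cancer cell lines were pin-tool dosed in 1536-well plates on the day after seeding, with either a lone drug or a fixed anchor-drug dose plus five library-drug doses (not always all listed) in √10 steps. Nuclei were counted on 4× images after 5 days. Relative viability is the ratio of treated-well to vehicle-well nuclei counts, with each value a median of duplicate plates.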

Compound in assay [2]: C1CC2=C(C1)C=C(C=C2)OC3=NC(=C4C(=N3)N(C=N4)CC5=CC=C(C=C5)C6=CC=CC=C6)N[C@@H](CC7=CC=CC=C7)CO [QS11] + COc1cccc2cc(-c3nc([C@H]4CC[C@H](C(=O)O)CC4)n4ncnc(N)c34)[nH]c12 [OSI-027] (partner 0.5 µM)
Put shortly: as §1

Compound in assay [3]: CC1=C(C=C(C=C1)NC(=O)C2=CC(=CC=C2)C(C)(C)C#N)NC3=CC4=C(C=C3)N=CN(C4=O)C [AZ628] + COc1cccc2cc(-c3nc([C@H]4CC[C@H](C(=O)O)CC4)n4ncnc(N)c34)[nH]c12 [OSI-027] (partner 0.5 µM)
A digest of the protocol:
as §1

Compound in assay [4]: C[As](C)SC[C@H](NC(=O)CC[C@H](N)C(=O)O)C(=O)NCC(=O)O [Darinaparsin] + CC(C)C[C@H](NC(=O)[C@H](Cc1ccccc1)NC(=O)c1cnccn1)B(O)O [Bortezomib] (partner 0.002 µM)
Put shortly:
as §1

Compound in assay [5]: C[As](C)SC[C@H](NC(=O)CC[C@H](N)C(=O)O)C(=O)NCC(=O)O [Darinaparsin] + CC1(C)CCC(c2ccc(Cl)cc2)=C(CN2CCN(c3ccc(C(=O)NS(=O)(=O)c4ccc(N[C@H](CCN5CCOCC5)CSc5ccccc5)c(S(=O)(=O)C(F)(F)F)c4)cc3)CC2)C1 [Navitoclax] (partner 0.5 µM)
Put shortly:
as §1

Take LCLC-97TM1: the relative viability in assay [1] (first compound 0.253 µM) came to 0.213; in assay [1] (first compound 2.53 µM) it was 0.223; in assay [1] (first compound 8 µM) it was 0.277; in assay [2] (first compound 0.08 µM) it was 0.405; in assay [2] (first compound 0.253 µM), 0.698; in assay [2] (first compound 2.53 µM), 0.565. The relative viability in assay [2] (first compound 8 µM) worked out at 0.588; in assay [3] (first compound 0.08 µM), 0.577; in assay [3] (first compound 0.253 µM), 0.328; in assay [3] (first compound 0.8 µM), 0.315; in assay [3] (first compound 2.53 µM), 0.327; in assay [3] (first compound 8 µM) it was 0.198. Further, the relative viability in assay [4] (first compound 0.08 µM) is 0.765; in assay [4] (first compound 0.8 µM) it was 0.513; in assay [4] (first compound 2.53 µM), 0.416; in assay [4] (first compound 8 µM) it was 0.481; in assay [5] (first compound 0.08 µM) it was 0.383; in assay [5] (first compound 0.8 µM) it was 0.947. In addition, the relative viability in assay [5] (first compound 2.53 µM) was determined as 0.398; in assay [5] (first compound 8 µM) it was 0.579.
